Source: patent US9540299B2, “MTOR-independent activator of TFEB for autophagy enhancement and uses thereof” (Hong Kong Baptist University, priority 2015, dated 2017)

Test system: MTOR pathway
Experiment: Effects on MTOR pathway: phosphorylation by western blot in N2a cells
Type: cell-based, mouse
Conditions: for phosphorylation of RPS6KB1/p70S6K, MTOR and AKT: 12 h, curcumin 10 μM, analogs 1 μM; for phosphorylation of RPS6KB1/p70S6K and MTOR: 12 hours
Protocol: N2a cells were treated with curcumin (Cur, 10 μM), A2, B3 and C1 (1 μM) for 12 h. Torin 1 (1 μM) treatment for 2 h was used as a positive control. […] FIG. 3B is a bar chart showing the expression of phosphorylated (p−) and total RPS6KB1/P70S6K, MTOR and AKT. Data are presented as the mean±SD from three independent experiments. *p<0.05 vs. the control (0.1% DMSO).
N2a cells are treated with E2, E3 and E4 (1 μM) for 12 hours. Torin 1 (1 μM) treatment for 2 hours is used as a positive control. The expression of phosphorylated (p−) and total RPS6KB1/P70S6K and MTOR are shown in Western blotting (FIG. 15A). The phosphorylation of RPS6KB1 and MTOR levels are also quantified (FIG. 15B). Data are presented as the mean±SD from three independent experiments. *p<0.05 vs. the control (0.1% DMSO).
N2a cells are treated with different concentrations of E4 (0-1 μM) and Torin 1 (1 μM) for 6 hours. The expression of phosphorylated (p−) and MTOR are detected by Western blotting (FIG. 23A). The phosphorylation of MTOR levels are also quantified (FIG. 23B). Data are presented as the mean±SD from three independent experiments. *p<0.05 vs. the control (0.1% DMSO).
N2a cells are treated with E4 (1 μM) for indicated times and Torin 1 (1 μM) for 6 hours. The expression of phosphorylated (p−) and total RPS6KB1/P70S6K and MTOR are detected by Western blotting (FIG. 24A). The phosphorylation of RPS6KB1 and MTOR levels are also quantified (FIG. 24B). Data are presented as the mean±SD from three independent experiments. *p<0.05 vs. the control (0.1% DMSO).
N2a, Hela and Hela cells stably expressing 3×-Flag-TFEB are cultured in DMEM supplemented with 10% FBS. SH-SY5Y cells are cultured in DMEM/F12 supplemented with 10% FBS. For drug treatment, the full medium is replaced by fresh Opti-MEM I and then the compounds (in 0.1% DMSO) are added to the cells and incubated for 12 h. Inducible PC12 cells overexpressing SNCA (WT and A53T) (a kind gift from Prof. David C. Rubinsztein at Cambridge University) are grown in DMEM supplemented with 10% horse serum, 5% FBS, 50 μg/ml G418, and 150 μg/ml hygromycin B at 37° C., 10% CO2. Cells are treated with 2 μg/ml doxycycline (Dox) for 24 h to induce SNCA expression. The full medium is changed to Opti-MEM I containing the testing compounds for another 48 h.
Cells are lysed on ice in 1× Lysis Buffer (9803, Life Technologies) with complete protease inhibitor mixture (04693124001, Roche Applied Science). Animal tissues are homogenized in nine volumes of ice-cold PBS supplemented with protease inhibitors. Cytosolic and nuclear fractions are isolated using protocols similar to those described previously. Anti-Flag or TFEB antibody is added to the whole cell lysates and Dynabeads® Protein G (10003D, Life Technologies) is used for immunoprecipitation. Proteins are separated by 10-15% SDS-PAGE, transferred, and blotted with the antibodies described. The blots are then incubated with secondary antibodies or the Clean-Blot IP Detection Reagent (21230, Thermo Scientific) at room temperature for 1 h. The protein signals are detected by ECL kit (32106, Pierce) and quantified using ImageJ software.
N2a and HeLa cells are cultured in DMEM supplemented with 10% FBS. HeLa cells stably expressing 3×-Flag-TFEB are maintained in DMEM supplemented with 10% FBS and 500 μg/mL G418. For drug treatment, the full medium is replaced by fresh Opti-MEM I containing the compounds (in 0.1% DMSO) and incubated for the indicated time periods.
Cells are lysed on ice in 1× Lysis Buffer (9803, Life Technologies) with complete protease inhibitor mixture (04693124001, Roche Applied Science) and phosphatase inhibitor (B15001, Biotool). Cytosolic and nuclear fractions are isolated using protocols similar to those described previously. Proteins are separated by 10-15% SDS-PAGE, transferred, and blotted with the antibodies described. The blots are then incubated with primary and secondary antibodies. […]

| SMILES | phosphorylation of RPS6KB1/p70S6K, MTOR and AKT | phosphorylation of RPS6KB1/p70S6K and MTOR (1 μM) | further results |
| --- | --- | --- | --- |
| O=C(/C=C/c1cccc(C(F)(F)F)c1)/C=C/c1cccc(C(F)(F)F)c1 [A2, 1,5-bis(3-(trifluoromethyl)phenyl)penta-1,4-dien-3-one] | inhibit |  |  |
| O=C(/C=C/c1ccc(O)cc1)/C=C/c1ccc(O)cc1 [B3, 1,5-bis(4-hydroxyphenyl)penta-1,4-dien-3-one] | inhibit |  |  |
| COc1ccccc1/C=C/C(=O)/C=C/c1ccccc1OC [C1, 1,5-bis(2-methoxyphenyl)penta-1,4-dien-3-one] | significantly promotes |  |  |
| O=C(/C=C/c1ccccc1Cl)/C=C/c1ccccc1Cl [E2] |  | significantly inhibit |  |
| O=C(/C=C/c1ccccc1Br)/C=C/c1ccccc1Br [E3] |  | significantly inhibit |  |
| O=C(/C=C/c1ccccc1I)/C=C/c1ccccc1I [E4] |  | significantly inhibit | phosphorylation of MTOR, dose-dependent (0-1 μM, 6 hours, dose-dependent manner): significantly inhibits; phosphorylation of both MTOR and p70S6K, time-dependent (1 μM, 0-6 hours, time-dependent manner): inhibits |
| COc1cc(/C=C/C(=O)CC(=O)/C=C/c2ccc(O)c(OC)c2)ccc1O [curcumin, Curcumin, reference compound] | inhibit |  |  |
